pEC50: −log10 of the molar value.
Experiments:
thrombocyte aggregation = test: Thrombocyte aggregation according to Born and Cross (collagen-induced, platelet-rich plasma); format: cell-based; settings: platelet-rich plasma from healthy human test subjects; aggregation initiated by collagen
Procedure: Determination of the thrombocyte aggregation according to Born and Cross [J. Physiol. 170, 397 (1964)]
The thrombocyte aggregation was determined in platelet-rich plasma from healthy human test subjects. The course of decrease in optical density after the administration of standard commercial collagen (made by the Sigma Co., St. Louis, Mo.) containing 1 mg of collagen fibrils per ml was measured photometrically and recorded. The rate of aggregation (Vmax) was deduced from the angle of inclination of the density curve. The point on the curve where there was most light transmittance was used to calculate the optical density (O.D.). To initiate maximum aggregation, about 0.01 ml of the collagen solution was added to 1 ml of platelet-rich plasma.

anesthetized cat = test: Hypotensive and positive inotropic activity in the anesthetized cat; format: in vivo; settings: average; for Change in blood pressure (first value of the printed pair) / Change in blood pressure (second value of the printed pair): arterial pressure, aorta abdominalis; for Change in blood pressure (first value of the printed pair): first number before the slash; for Change in blood pressure (second value of the printed pair): second number after the slash; for Increase in dp/dt: left ventricle pressure, dp/dtmax
Procedure: Determination of hypotensive and positive inotropic activity in the anesthetized cat
The tests were carried out on cats which had been anesthetized with sodium pentobarbital (40 mg/kg i.p.). The animals breathed spontaneously. The arterial blood pressure was measured in the aorta abdominalis using a Statham pressure transducer (P 23 Dc). To determine the positive inotropic effect, the pressure in the left ventricle of the heart was measured using a catheter-tip manometer (Milliar PC-350 A). From this, the contractility parameter (dp/dtmax was obtained by means of an analog differentiator.
The test compounds were injected into a vena femoralis. Physiological saline solution or Polydiol 200 was used as the solvent. Each compound was tested on at least 3 cats in a dosage of 0.1 or 2.0 mg/kg i.v. The duration of activity of the test compounds was at least 45 minutes in each case.

Acute toxicity = settings: in vivo, po; peroral, mouse
Procedure: In therapeutic doses the test substances are non-toxic. For example, compound B has a peroral LD50 of >50 mg/kg in the mouse.

Row | SMILES | pEC50 (thrombocyte aggregation) | Change in blood pressure (first value of the printed pair) (anesthetized cat; 0.1 mg/kg i.v.) | Change in blood pressure (second value of the printed pair) (anesthetized cat; 0.1 mg/kg i.v.) | Increase in dp/dt (anesthetized cat; 0.1 mg/kg i.v.) | Change in blood pressure (first value of the printed pair) (anesthetized cat; 2.0 mg/kg i.v.) | Change in blood pressure (second value of the printed pair) (anesthetized cat; 2.0 mg/kg i.v.) | Increase in dp/dt (anesthetized cat; 2.0 mg/kg i.v.) | LD50 (Acute toxicity)
1 | COc1ccc(C(=O)n2nnc3cc(C4=NNC(=O)CC4C)ccc32)cc1 (stereo not shown) [A, 5-Methyl-6-(1'-p-methoxybenzoyl-benzotriazol-5'-yl)-4,5-dihydro-3(2H)-pyridazinone] | 6.57 | -16 mm Hg | -16 mm Hg | +105% | – | – | – | –
2 | CC1CC(=O)NN=C1c1ccc2c(c1)nnn2C(=O)C1CCCCC1 (stereo not shown) [B, 5-Methyl-6-(1'-cyclohexanoyl-benzotriazol-5'-yl)-4,5-dihydro-3(2H)-pyridazinone] | 6.55 | – | – | – | -60 mm Hg | -37 mm Hg | +154% | > 50 mg/kg
3 | CC1CC(=O)NN=C1c1ccc2c(c1)nnn2C(C)C (stereo not shown) [C, 5-Methyl-6-(1'-isopropyl-benzotriazol-5'-yl)-4,5-dihydro-3(2H)-pyridazinone] | 7.48 | -27 mm Hg | -33 mm Hg | +116% | – | – | – | –
4 | COc1ccc(Cn2nnc3cc(C4=NNC(=O)CC4C)ccc32)cc1 (stereo not shown) [Compound E, 5-Methyl-6-(1'-p-methoxybenzyl-benzotriazol-5'-yl)-4,5-dihydro-3(2H)-pyridazinone] | – | -48 mm Hg | -48 mm Hg | +167% | – | – | – | –
5 | CCn1nnc2cc(C3=NNC(=O)CC3C)ccc21 (stereo not shown) [D, 5-Methyl-6-(1'-ethyl-benzotriazol-5'-yl)-4,5-dihydro-3(2H)-pyridazinone] | 7.39 | -30 mm Hg | -32 mm Hg | +125% | – | – | – | –
6 | CC1CC(=O)NN=C1c1ccc2c(c1)nnn2CCN(C)C (stereo not shown) [F, 5-Methyl-6-[1'-(2-dimethylaminoethyl)-benzotriazol-5'-yl]-4,5-dihydro-3(2H)-pyridazinone] | 6.52 | – | – | – | – | – | – | –
7 | CC1CC(=O)NN=C1c1ccc2c(c1)nnn2C (stereo not shown) [G, 5-Methyl-6-(1'-methyl-benzotriazol-5'-yl)-4,5-dihydro-3(2H)-pyridazinone] | 7.29 | -33 mm Hg | -38 mm Hg | +168% | – | – | – | –

Source: patent US4699909A, “Benzotriazolyl-4,5-dihydro-3(2H)-pyridazinones” (Dr. Karl Thomae GmbH, priority 1981, dated 1987)
